Data reported in patent US12187702B2, “Sulfonamideurea compounds” (Inflazome Limited, priority 2018, dated 2025).
pIC50: −log10 of the molar value. Counter-ions that a name gives are not always drawn.

target: NLRP3 (Homo sapiens, UniProt Q96P20); assay: THP-1 cells pyroptosis assay (LPS + nigericin, resazurin read-out); format: cell-based; design: Seed THP-1 cells (25,000 cells/well) containing 1.0 μg/ml LPS; host or cells: THP-1 cells; settings: THP-1 cells, 1 μg/ml LPS, 5 μM nigericin; NLRP3 inhibitory activity; read-out: THP IC50
Sequence (Q96P20 whole entry): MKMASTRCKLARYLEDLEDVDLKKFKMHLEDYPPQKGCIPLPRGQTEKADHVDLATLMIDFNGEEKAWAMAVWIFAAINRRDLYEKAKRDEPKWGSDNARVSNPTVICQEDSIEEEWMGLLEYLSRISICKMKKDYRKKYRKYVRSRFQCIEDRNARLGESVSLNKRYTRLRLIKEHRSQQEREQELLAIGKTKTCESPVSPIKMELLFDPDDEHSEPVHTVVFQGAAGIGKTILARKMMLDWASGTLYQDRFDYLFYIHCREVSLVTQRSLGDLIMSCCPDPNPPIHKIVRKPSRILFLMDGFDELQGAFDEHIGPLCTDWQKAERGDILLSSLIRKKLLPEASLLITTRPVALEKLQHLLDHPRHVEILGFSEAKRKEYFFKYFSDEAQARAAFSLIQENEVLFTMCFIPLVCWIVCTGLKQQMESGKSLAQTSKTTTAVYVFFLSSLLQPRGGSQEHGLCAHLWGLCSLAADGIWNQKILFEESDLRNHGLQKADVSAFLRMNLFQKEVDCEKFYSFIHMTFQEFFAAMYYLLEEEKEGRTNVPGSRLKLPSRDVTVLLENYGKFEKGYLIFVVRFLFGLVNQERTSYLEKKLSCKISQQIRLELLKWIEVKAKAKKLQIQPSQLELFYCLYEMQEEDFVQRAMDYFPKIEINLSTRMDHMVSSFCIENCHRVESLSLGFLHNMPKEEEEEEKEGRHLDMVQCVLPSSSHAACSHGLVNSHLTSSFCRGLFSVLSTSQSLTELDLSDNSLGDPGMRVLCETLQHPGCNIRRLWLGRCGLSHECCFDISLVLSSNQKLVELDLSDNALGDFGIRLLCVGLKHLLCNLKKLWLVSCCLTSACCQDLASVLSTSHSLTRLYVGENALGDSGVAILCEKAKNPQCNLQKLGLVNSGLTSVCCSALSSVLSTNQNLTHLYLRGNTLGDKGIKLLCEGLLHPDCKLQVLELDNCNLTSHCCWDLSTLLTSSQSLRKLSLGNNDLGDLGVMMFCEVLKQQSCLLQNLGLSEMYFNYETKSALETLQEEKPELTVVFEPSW
Description: THP-1 cells (ATCC #TIB-202) were grown in RPMI containing L-glutamine (Gibco #11835) supplemented with 1 mM sodium pyruvate (Sigma #S8636) and penicillin (100 units/ml)/streptomycin (0.1 mg/ml) (Sigma #P4333) in 10% Fetal Bovine Serum (FBS) (Sigma #F0804). The cells were routinely passaged and grown to confluency (˜10^6 cells/ml). On the day of the experiment, THP-1 cells were harvested and resuspended into RPMI medium (without FBS). The cells were then counted and viability (>90%) checked by Trypan blue (Sigma #T8154). Appropriate dilutions were made to give a concentration of 625,000 cells/ml. To this diluted cell solution was added LPS (Sigma #L4524) to give a 1 μg/ml Final Assay Concentration (FAC). 40 μl of the final preparation was aliquoted into each well of a 96-well plate. The plate thus prepared was used for compound screening.
The following method step-by-step assay was followed for compound screening. • 1. Seed THP-1 cells (25,000 cells/well) containing 1.0 μg/ml LPS in 40 μl of RPMI medium (without FBS) in 96-well, black walled, clear bottom cell culture plates coated with poly-D-lysine (VWR #734-0317) • 2. Add 5 μl compound (8 points half-log dilution, with 10 μM top dose) or vehicle (DMSO 0.1% FAC) to the appropriate wells • 3. Incubate for 3 hrs at 37° C., 5% CO2 • 4. Add 5 μl nigericin (Sigma #N7143) (FAC 5 μM) to all wells • 5. Incubate for 1 hr at 37° C., 5% CO2 • 6. At the end of the incubation period, spin plates at 300×g for 3 mins and remove supernatant • 7. Then add 50 μl of resazurin (Sigma #R7017) (FAC 100 μM resazurin in RPMI medium without FBS) and incubate plates for a further 1-2 hrs at 37° C. and 5% CO2 • 8. Plates were read in an Envision reader at Ex 560 nm and Em 590 nm • 9. IC50 data is fitted to a non-linear regression equation (log inhibitor vs response-variable slope 4-parameters)

Row | Compound | pIC50
1 | COCCN(C)S(=O)(=O)NC(=O)Nc1c2c(cc3c1CCC3)CCC2 [Example 7, 3-Methyl-((2-Methoxyethyl)sulfamoyl)-1-(1,2,3,5,6,7-hexahydro-s-indacen-4-yl)urea, potassium salt] | > 6.00
2 | CN(C)CCN(CCc1ccccc1)S(=O)(=O)NC(=O)Nc1c2c(cc3c1CCC3)CCC2 [Example 13, 3-(N-(2-(Dimethylamino)ethyl)-N-phenethylsulfamoyl)-1-(1,2,3,5,6,7-hexahydro-s-indacen-4-yl)urea, potassium salt] | > 6.00
3 | CCN(CC)CCN(CC)S(=O)(=O)NC(=O)Nc1c2c(cc3c1CCC3)CCC2 [Example 18, 3-(N-(2-(Diethylamino)ethyl)-N-ethylsulfamoyl)-1-(1,2,3,5,6,7-hexahydro-s-indacen-4-yl)urea, potassium salt] | > 5.30
4 | CCN1CCCC(NS(=O)(=O)NC(=O)Nc2c3c(cc4c2CCC4)CCC3)C1 (stereo not drawn) [Example 19, 3-(N-(1-Ethylpiperidin-3-yl)sulfamoyl)-1-(1,2,3,5,6,7-hexahydro-s-indacen-4-yl)urea, potassium salt] | > 6.00
5 | CC(CN(C)C)N(C)S(=O)(=O)NC(=O)Nc1c2c(cc3c1CCC3)CCC2 (stereo not drawn) [Example 27, 3-(N-(1-(dimethylamino)propan-2-yl)-N-methyl)sulfamoyl)-1-(1,2,3,5,6,7-hexahydro-s-indacen-4-yl)urea, potassium salt] | > 6.00
6 | CNCCN(C)S(=O)(=O)NC(=O)Nc1c2c(cc3c1CCC3)CCC2 [Example 32, 3-(N-Methyl-N-(2-(methylamino)ethyl))sulfamoyl)-1-(1,2,3,5,6,7-hexahydro-s-indacen-4-yl)urea, potassium salt] | > 5.30
7 | CC(C)N1[C@@H]2CC[C@H]1C[C@@H](NS(=O)(=O)NC(=O)Nc1c3c(cc4c1CCC4)CCC3)C2 [Example 33, (1R,3r,5S)-8-Isopropyl-8-azabicyclo[3.2.1]octan-3-(N-((1,2,3,5,6,7-hexahydro-s-indacen-4-yl)carbamoyl)-sulfonamide)] | > 5.30
8 | CCN(CC)CCN(C)S(=O)(=O)NC(=O)Nc1c2c(cc3c1CCC3)CCC2 [Example 53, 3-(N-(2-(Diethylamino)ethyl)-N-methyl)sulfamoyl)-1-(1,2,3,5,6,7-hexahydro-s-indacen-4-yl)urea, potassium salt] | > 5.30
9 | O=C(Nc1c2c(cc3c1CCC3)CCC2)NS(=O)(=O)N1CCN2CCC1C2 (stereo not drawn) [Example 60, potassium salt] | > 6.00
10 | CC(C)N1[C@@H]2CC[C@H]1C[C@H](NS(=O)(=O)NC(=O)Nc1c3c(cc4c1CCC4)CCC3)C2 [Example 63, (1R,3s,5S)-8-isopropyl-8-azabicyclo[3.2.1]octan-3-(N-((1,2,3,5,6,7-hexahydro-s-indacen-4-yl)carbamoyl)-sulfonamide)] | > 6.00
11 | CCN(CC)[C@H]1C[C@H]2CC[C@@H](C1)N2S(=O)(=O)NC(=O)Nc1c2c(cc3c1CCC3)CCC2 [Example 64, (1R,3r,5S)-3-(Diethylamino)-N-((1,2,3,5,6,7-hexahydro-s-indacen-4-yl)carbamoyl)-8-azabicyclo[3.2.1]octane-8-sulfonamide] | > 6.30
12 | CN1CC(CNS(=O)(=O)NC(=O)Nc2c3c(cc4c2CCC4)CCC3)C1 [Example 69, 3-(N-((1-Methylazetidin-3-yl)methyl)sulfamoyl)-1-(1,2,3,5,6,7-hexahydro-s-indacen-4-yl)urea, potassium salt] | > 6.00
13 | O=C(Nc1c2c(cc3c1CCC3)CCC2)NS(=O)(=O)N1[C@@H]2CC[C@H]1C[C@@H](N1CCCC1)C2 [Example 70, (1R,3r,5S)—N-((1,2,3,5,6,7-Hexahydro-s-indacen-4-yl)carbamoyl)-3-(pyrrolidin-1-yl)-8-azabicyclo[3.2.1]octane-8-sulfonamide] | > 6.00
14 | CCN1[C@@H]2CC[C@H]1C[C@H](NS(=O)(=O)NC(=O)Nc1c3c(cc4c1CCC4)CCC3)C2 [Example 74, (1R,3s,5S)-8-Ethyl-8-azabicyclo[3.2.1]octan-3-(N-((1,2,3,5,6,7-hexahydro-s-indacen-4-yl)carbamoyl)-sulfonamide)] | > 5.30
15 | CN(C)[C@@H]1C[C@H]2CC[C@@H](C1)N2S(=O)(=O)NC(=O)Nc1c2c(cc3c1CCC3)CCC2 [Example 77, (1R,3s,5S)-3-(Dimethylamino)-N-((1,2,3,5,6,7-hexahydro-s-indacen-4-yl)carbamoyl)-8-azabicyclo[3.2.1]octane-8-sulfonamide] | > 5.00

Second part, the compound after the results:

Row | pIC50 | Compound
16 | > 5.30 | CC(C)CN(CCN(C)C)S(=O)(=O)NC(=O)Nc1c2c(cc3c1CCC3)CCC2 [Example 12, 3-(N-(2-(Dimethylamino)ethyl)-N-isobutylsulfamoyl)-1-(1,2,3,5,6,7-hexahydro-s-indacen-4-yl)urea, potassium salt]
17 | > 5.30 | CC(CN(C)C)NS(=O)(=O)NC(=O)Nc1c2c(cc3c1CCC3)CCC2 (stereo not drawn) [Example 16, 3-(N-(1-(Dimethylamino)propan-2-yl)sulfamoyl)-1-(1,2,3,5,6,7-hexahydro-s-indacen-4-yl)urea, potassium salt]
18 | > 6.00 | CN(C)C1CN(S(=O)(=O)NC(=O)Nc2c3c(cc4c2CCC4)CCC3)C1 [Example 17, 3-(Dimethylamino)-N-((1,2,3,5,6,7-hexahydro-s-indacen-4-yl)carbamoyl)azetidine-1-sulfonamide, potassium salt]
19 | > 5.30 | CCN1CCN(S(=O)(=O)NC(=O)Nc2c3c(cc4c2CCC4)CCC3)CC1 [Example 21, 4-Ethyl-N-((1,2,3,5,6,7-hexahydro-s-indacen-4-yl)carbamoyl) piperazine-1-sulfonamide]
20 | > 6.30 | CN1CCCCC1CN(C)S(=O)(=O)NC(=O)Nc1c2c(cc3c1CCC3)CCC2 (stereo not drawn) [Example 22, 3-(N-methyl-N-((1-methylpiperidin-2-yl)methyl)sulfamoyl)-1-(1,2,3,5,6,7-hexahydro-s-indacen-4-yl)urea, potassium salt]
21 | > 5.30 | O=C(Nc1c2c(cc3c1CCC3)CCC2)NS(=O)(=O)N1CC(N2CCCC2)C1 [Example 23, potassium salt]
22 | > 5.00 | O=C1Cc2cc(NS(=O)(=O)NC(=O)Nc3c4c(cc5c3CCC5)CCC4)ccc2N1 [Example 24, 3-(N-(2-Oxoindolin-5-yl)sulfamoyl)-1-(1,2,3,5,6,7-hexahydro-s-indacen-4-yl)urea, potassium salt]
23 | > 5.30 | CC(=O)N(C)CCN(C)S(=O)(=O)NC(=O)Nc1c2c(cc3c1CCC3)CCC2 [Example 41, N-(2-((N-((1,2,3,5,6,7-Hexahydro-s-indacen-4-yl)carbamoyl)sulfamoyl)(methyl)amino)ethyl)-N-methylacetamide, potassium salt]
24 | > 6.00 | CN(C)CCCCNS(=O)(=O)NC(=O)Nc1c2c(cc3c1CCC3)CCC2 [Example 48, 3-(N-(4-(Dimethylamino)butyl)sulfamoyl)-1-(1,2,3,5,6,7-hexahydro-s-indacen-4-yl)urea, potassium salt]
25 | > 5.00 | CN(C)CCN(CCN(C)C)S(=O)(=O)NC(=O)Nc1c2c(cc3c1CCC3)CCC2 [Example 51, 3-(N,N-Bis(2-(dimethylamino)ethyl)sulfamoyl)-1-(1,2,3,5,6,7-hexahydro-s-indacen-4-yl)urea, potassium salt]
26 | > 5.30 | O=C(Nc1c2c(cc3c1CCC3)CCC2)NS(=O)(=O)NCCCCO [Example 54, 3-((N-(4-Hydroxybutyl))sulfamoyl)-1-(1,2,3,5,6,7-hexahydro-s-indacen-4-yl)urea, potassium salt]
27 | > 6.00 | Cn1ccc(NS(=O)(=O)NC(=O)Nc2c3c(cc4c2CCC4)CCC3)n1 [Example 55, 3-((N-(1-Methyl-1H-pyrazol-3-yl))sulfamoyl)-1-(1,2,3,5,6,7-hexahydro-s-indacen-4-yl)urea, potassium salt]
28 | > 5.30 | CN(C)C(C)(C)CNS(=O)(=O)NC(=O)Nc1c2c(cc3c1CCC3)CCC2 [Example 57, 3-(N-(2-(Dimethylamino)-2-methylpropyl)sulfamoyl)-1-(1,2,3,5,6,7-hexahydro-s-indacen-4-yl)urea, potassium salt]
29 | > 5.30 | CN(C)CC(C)(C)NS(=O)(=O)NC(=O)Nc1c2c(cc3c1CCC3)CCC2 [Example 59, 3-(N-(1-(Dimethylamino)-2-methylpropan-2-yl)sulfamoyl)-1-(1,2,3,5,6,7-hexahydro-s-indacen-4-yl)urea, potassium salt]
30 | > 6.00 | CN1C[C@@H]2C[C@H]1CN2S(=O)(=O)NC(=O)Nc1c2c(cc3c1CCC3)CCC2 [Example 67, (1S,4S)—N-((1,2,3,5,6,7-Hexahydro-s-indacen-4-yl)carbamoyl)-5-methyl-2,5-diazabicyclo[2.2.1]heptane-2-sulfonamide, potassium salt]
